Source: a melting point compilation (Tetko et al.; mined from patent text by program, amines drawn as free bases though some values may be those of a salt)

SMILES | melting point
CC(C)(C)c1cccc(S(=O)(=O)n2c(Cc3ccc(C4=NOC(=O)C4)cc3)cc3cc(C(F)(F)F)ccc32)c1 | 70 °C
CN1CCc2c(F)c(F)c(N)c3c(=O)c(C(=O)O)cn1c23 | > 290 °C
C=CCc1cc2c(c(CC=C)c1O)NC(=O)CC2 | 86 to 88 °C
Cc1cc(S(C)(=O)=O)c(S(C)(=O)=O)cc1C(=O)N=C(N)N | > 240 °C
C[C@@H](CO)NS(=O)(=O)c1ccccc1[N+](=O)[O-] | 82 to 83 °C
O=[N+]([O-])c1ccc(N2CCSCC2)cc1 | 142 to 144 °C
O=C(O)CN1C(=O)C(c2ccccc2)c2ccccc21 (stereo not given) | 180 to 181 °C
CC(C)c1ccc(C(=O)C2=C(O)C(=O)N(c3ncc(S(=O)(=O)c4ccc([N+](=O)[O-])cc4)s3)C2c2ccc(OC(F)(F)F)cc2)cc1 (stereo not given) | 276 to 278 °C
CC(C)(C)OC(=O)c1cn(-c2ccc(Cl)cc2)c(-c2ccc(Cl)cc2Cl)n1 | 179 to 181 °C
Nc1c2c(nc3cccc(Cl)c13)CCCC2 | 144 to 145 °C
CN(C)C1(c2ccccc2)CCC(CC(=O)NCCCCc2c[nH]c3ccccc23)CC1 (stereo not given) | 186 °C
NC(=O)c1sccc1SSc1ccsc1C(N)=O | 222 to 223 °C
CC(C)OC(N)=C(C#N)C(=N)S | 170 °C
C/C(=C(\C#N)C(N)=S)N1CCC(O)CC1 | 160 to 163 °C
Cc1cc(SCc2ccnc3sc(-c4ccc(C(F)(F)F)cc4)nc23)ccc1OCC(=O)O | 82 to 85 °C
Oc1nc2c([nH]1)CCCCC2 | 272 °C
COC(=O)c1cc(-c2ccncc2)cc2c1OC(c1ccccc1)(c1ccccc1)O2 | 151 to 152 °C
Cc1c(SCCN2CCOCC2)ccnc1CSc1nc2ccccc2[nH]1 | 201 to 203 °C
COc1cc(-c2nc(-n3ccnc3)c3c(C)c(C#N)sc3n2)cc(OC)c1OC | 238 to 240 °C
CCCCn1c(=O)cc(O)c2ccccc21 | 211 to 213 °C
CSc1ccc(-c2cc(C#N)c(=O)[nH]c2C)cc1 | 275 to 276 °C
CN1C(=O)CN=C(c2ccccc2F)c2cc(NC(=O)N(CCOC(C)(C)C)Cc3ccccc3)ccc21 | 82 to 86 °C

SMILES | melting point
CC1(C)SC(c2ccccc2O)NC1C(=O)O (stereo not given) | 179 to 181 °C
COc1ccc(-c2[nH]nc3c2C(=O)c2c(NC(=O)Nc4ccccc4)cccc2-3)cc1 | > 300 °C
COc1ccc(-c2c(-c3ccncc3)sc3nc(=O)cc(N)n23)cc1 | 267 to 271 °C
CCC1(C(NC(=O)c2ccc(Cl)cc2)NC(=NC#N)Nc2cccnc2)COCOC1 (stereo not given) | 194 to 195 °C
NS(=O)(=O)c1ccccc1-c1ccc(Cn2c(-c3ccccc3)nc(Cl)c2C=O)cc1 | 215 °C
Cc1ccc(CCOCC(=O)O)cc1 | 65 to 67 °C
CC(c1ccc(-c2ccccc2)c(F)c1)c1csc(N)n1 (stereo not given) | 167 to 168 °C
COc1ccc(-c2nc3c(N)cccc3n2Cc2c(F)cccc2F)c(F)c1 | 200 to 202 °C
Cn1c(Cl)c(C=O)c2cc(Cl)ccc21 | 165 to 167 °C
O=C(Nc1ccc(Br)cc1)Nc1cc(C(F)(F)F)ccc1Oc1ccccc1C(=O)O | 229 to 231 °C
c1ccc(OCn2c(Nc3cnon3)nc3ccccc32)cc1 | 171 to 173 °C
O=C(NOC(=O)C(F)(F)F)C(F)(F)F | 40 to 50 °C
C[C@H](NC(=O)OC(C)(C)C)C(=O)N[C@H]1CCNC1 | 137 to 138 °C
Cc1c(/C=C/C(=O)N(C)C)ncn1C(c1ccccc1)(c1ccccc1)c1ccccc1 | 195 to 197 °C
Cn1cncc1C(O)(c1ccc(Cl)cc1)c1ccc2c(c1)C(c1cccc(Cl)c1)SCc1nnnn1-2 (stereo not given) | 217 °C
Fc1ccc(SCCCN2CCN(c3ncc(F)cn3)CC2)cc1 | 68 to 70 °C
CC1(C)Oc2ccccc2C(c2ccc[nH]c2=O)C1O (stereo not given) | 244 to 246 °C
CS(=O)(=O)c1ccc(-c2cnn(-c3cc(Cl)cc(Cl)c3)c(=O)c2-c2ccc(F)cc2)cc1 | 289 to 294 °C
Brc1ccn2nc(Br)nc2c1 | 183 to 184 °C
CC(CN1CCC(Nn2cccc2)CC1)c1ccccc1 (stereo not given) | 72 to 74 °C
COc1ccc(-c2nc3cc(OC)cc(-c4ccco4)c3o2)cc1 | 120 to 121 °C
CC(=O)c1nn(-c2c(Cl)cc(C(F)(F)F)cc2Cl)c(NSC(F)(F)F)c1S(C)=O (stereo not given) | 67 to 102 °C

SMILES | melting point
CN(C(=O)C(F)(F)F)c1ccc2[nH]ncc2c1 | 172 to 174 °C
CC=CC(=O)Nc1cccc(OC(=O)Nc2ccc(Cl)c(Cl)c2)c1 | 193 to 194 °C
C[C@H]1C=CC(Sc2ccccc2)=CC[C@H]1O | 54 to 56 °C
Cc1nnc(-c2ccc3scc(-c4ccc(S(C)=O)cc4)c3c2)o1 (stereo not given) | 166 to 167 °C
CC(C)(C)OC(=O)NCC(=O)NNc1ccc(N)cc1 | 144 °C
Cc1cc(Oc2cc(F)ccc2[N+](=O)[O-])n[nH]1 | 95 to 97 °C
COc1ccc(Cc2n[nH]c3c2c(=O)n(-c2ccccc2)c2ncccc32)c(OC)c1 | 266 to 267 °C
COc1ccc2c(c1)c(CC(=O)NN)cn2Cc1ccccc1 | 143 to 144 °C
O=S(=O)(c1ccccc1)N1CCC(C(O)(c2ccc(F)cc2)c2ccc(F)c(F)c2)CC1 (stereo not given) | 97 to 99 °C
CC(C)(C)OC(=O)N[C@H](CNc1ccccc1N)C(=O)O | 158 to 160 °C
Cc1ccc(N(C)C(=O)CN(C(=O)CNC(=O)Nc2cccc(C)c2)c2ccccc2)cc1 | 162 °C
CC1CCCN(C(=O)c2ccc([N+](=O)[O-])cc2)C1 (stereo not given) | 70.2 to 71.3 °C
O=C(CCC(O)c1ccc(CCNS(=O)(=O)c2ccc(Cl)cc2)cc1)Nc1nnn[nH]1 (stereo not given) | 194 to 196 °C
Cc1cc(C)cc(SCCC(=O)O)c1 | 69 to 70 °C
Cc1cc(OS(=O)(=O)C(F)(F)F)c2cccc(OCc3ccccc3)c2n1 | 158 °C
Cc1ccc(CN2Cc3cncn3C(c3ccc(C#N)cc3)C2=O)cc1 (stereo not given) | 168 to 170 °C
Cc1ccc(S(=O)(=O)C[C@H]2CN3C(=O)C[C@@H]3O2)cc1 (racemic) | 120 to 121 °C
Cc1c(C(F)(F)F)cnn(-c2ncc(Cl)cc2F)c1=O | 91 to 93 °C
COc1ccc2c(N3CCCNCC3)noc2c1 | 74 to 75 °C
O=C(NCCc1ccc(I)cc1)C(F)(F)F | 136 to 138 °C
COC(=O)c1nn(Cc2ccc(Cl)cc2Cl)c2ccccc12 | 168 to 170 °C

Continued, values first:

melting point | SMILES
268 to 270 °C | CCCc1c(/C=C/c2cc(OC)cc(OC)c2)nc2ccc(C(=O)O)cn2c1=O
160 to 165 °C | COc1cc2c(cc1OC)CN(CC(O)c1ccc(NC(=O)c3cccc4c(=O)c5cccc(OC)c5[nH]c34)cc1)CC2 (stereo not given)
188 to 189 °C | CCOC(=O)c1cc(N)nc(SCc2ccc3ccccc3c2)n1
77 to 78 °C | CN(C(=O)OC(C)(C)C)[C@@H](Cc1ccc(O)cc1)C(=O)N1CCN(c2ccc(Cl)c(Cl)c2)CC1
182 to 187 °C | N[C@@H](CC(=O)c1ccc2oc3ccccc3c2c1)C(=O)O
190 to 194 °C | O=C1CCc2cc(C(=O)[C@H]3C[C@H]3C(=O)O)ccc2N1 (relative stereo)
141 to 142 °C | COCCNC(=O)c1cccc(-c2cccc3c(C)c(Cc4ccc(F)c(Cl)c4)sc23)c1
188 to 190 °C | O=C1CCC(N2Cc3c(OCc4ccccc4CN4CCOCC4)cccc3C2=O)C(=O)N1 (stereo not given)
146 °C | CCOc1cc(OCC)c(C=[N+]([O-])C2CCCCC2)c(OCC)c1
167 to 168 °C | CC(=O)N1CCCC2=C1CC(c1ccccc1)c1cc(Cl)ccc12 (stereo not given)
246 to 247 °C | CNC(=O)C(CC1CCCCC1)NC(=O)Nc1n[nH]c(=S)s1 (stereo not given)
182 °C | CC1(C)CCC(C)(C)c2cc(CCCn3cccn3)c(/C=C/c3ccc(C(=O)O)cc3)cc21
76 to 78 °C | CC(O)(CN)c1ccc(Oc2ccc3c(c2)S(=O)(=O)NC2CCCN32)cc1 (stereo not given)
100 to 102 °C | CCOC(=O)c1cc(-c2cc(Br)cc(Br)c2)cnc1C
61 to 62.5 °C | COCCNCc1cccc(OCCCNc2nc(N)nn2C)c1
113 to 115 °C | O=C(CCc1cc(C2CCCCC2)c(O)c(C2CCCCC2)c1)OCCCCCCOC(=O)CCc1cc(C2CCCCC2)c(O)c(C2CCCCC2)c1
253 to 255 °C | O=C(O)c1ccc2oc3c(c(=O)c2c1)CCCC3
67 °C | CCCCC(Cc1ccc(OCCN(CC)CC)cc1)(C(=O)O)S(=O)(=O)c1ccc(OC)cc1 (stereo not given)

melting point | SMILES
265 to 266 °C | O=C(Nc1ccc(CP(=O)(O)O)cc1)c1cc(=O)c2ccccc2o1
75.1 to 76 °C | COC(=O)C(C)(Cc1ccc(OCCc2nc(-c3ccccc3)oc2C)cc1)C(=O)OC
239 to 242 °C | COc1ccc(Sc2cc3c(cc2Cl)C=C(C(=O)O)C(C(F)(F)F)O3)cc1 (stereo not given)
69 °C | O=C1CC2(CCCC2)CC(=O)N1CCCCOc1cccc2c1SCCC2
159 to 161 °C | COc1ccc(-c2cc(=O)c(C(=O)O)cn2C2CC2)cc1
192 to 195 °C | NNc1cc2c(nn1)CCN(C(=O)c1ccc(Br)cc1)C2
> 200 °C | CSc1cc2c(cc1C(F)(F)F)N(C(=O)Nc1cccc(C(=O)O)c1)CC2
185 to 186 °C | O=C1NCCc2ccc(OCCCCN3CCN(c4cccc(Cl)c4Cl)CC3)cc2N1
151 to 152 °C | CCCCCCCCCC(=O)Nc1ccc(S(=O)(=O)Nc2nncs2)cc1
88 °C | COc1ccc2cc([C@H](C)C(=O)OCC3(C(SN=O)(C4CC4)C4CC4)CCN(C)CC3)ccc2c1
111 to 112 °C | O=c1c(O)c(CCCCCO)oc2ccccc12
182 °C | O=C(N[C@H]1CC[C@H](CCN2CCN(c3nccc4c3OCC4)CC2)CC1)c1ccc(N2CCCCC2)cc1
164 to 165 °C | COCCN1CC(C(=O)O)N(S(=O)(=O)c2ccc(OC)cc2)Cc2ccccc21 (stereo not given)
139 to 140 °C | CC(C)c1nn(-c2ccc(C(F)(F)F)cn2)cc1CCCOc1cc(CCC(=O)O)n(-c2ccccc2)n1
95 to 97 °C | CCOC(Cc1ccc(OCc2nc(C(C)(C)C)oc2C)c(C)c1)C(=O)O (stereo not given)
152 to 154 °C | COC(=O)CCc1ccc(-n2c(C)c(C)[nH]c2=O)cc1
62 to 64 °C | COC(=O)C1=C(Cl)/C(=N/OS(=O)(=O)c2ccc(C)cc2)CC(c2ccc(Cl)c(OC)c2F)N1 (stereo not given)
